Test [1] deals with Rho-associated protein kinase 2 (Rattus norvegicus, UniProt Q62868). Description: Inhibition of ROCK2-mediated myosin light chain bis-phosphorylation in rat A7r5 cells after 1 hr by TO-PRO-3 iodide staining-based assay. In kind it is cell-based.
In test [2] the target is Serine/threonine-protein kinase MRCK alpha (Homo sapiens, UniProt Q5VT25). The test is described as follows: Inhibition of MRCK-alpha (unknown origin) using LCB-AKRRRLSSLRA-NH2 as substrate after 75 mins by luminescence assay.
Test [3] is described as follows: Inhibition of PKA (unknown origin) after 70 mins by luminescence assay. Also on record: species or system Homo sapiens.
Test [4] deals with Rho-associated protein kinase 2 (Homo sapiens, UniProt O75116). Description: Inhibition of ROCK2 (unknown origin) after 4 hrs by HTRF assay. (TR-FRET usually uses a lanthanide donor and a delayed reading to cut background.)
The species named for test [5] is Homo sapiens. Description: Selectivity ratio of IC50 for PKA (unknown origin) to IC50 for ROCK2 (unknown origin).
The species named for test [6] is Homo sapiens. Description: Selectivity ratio of IC50 for MRCK-alpha (unknown origin) to IC50 for ROCK2 (unknown origin).

The values below come from ChEMBL document CHEMBL3217726, “Asymmetric synthesis of potent chroman-based Rho kinase (ROCK-II) inhibitors” (Medchemcomm, 2011).

Some results are limits rather than exact numbers.

Sequence of Rho-associated protein kinase 2 (Homo sapiens, UniProt O75116) (O75116 whole entry): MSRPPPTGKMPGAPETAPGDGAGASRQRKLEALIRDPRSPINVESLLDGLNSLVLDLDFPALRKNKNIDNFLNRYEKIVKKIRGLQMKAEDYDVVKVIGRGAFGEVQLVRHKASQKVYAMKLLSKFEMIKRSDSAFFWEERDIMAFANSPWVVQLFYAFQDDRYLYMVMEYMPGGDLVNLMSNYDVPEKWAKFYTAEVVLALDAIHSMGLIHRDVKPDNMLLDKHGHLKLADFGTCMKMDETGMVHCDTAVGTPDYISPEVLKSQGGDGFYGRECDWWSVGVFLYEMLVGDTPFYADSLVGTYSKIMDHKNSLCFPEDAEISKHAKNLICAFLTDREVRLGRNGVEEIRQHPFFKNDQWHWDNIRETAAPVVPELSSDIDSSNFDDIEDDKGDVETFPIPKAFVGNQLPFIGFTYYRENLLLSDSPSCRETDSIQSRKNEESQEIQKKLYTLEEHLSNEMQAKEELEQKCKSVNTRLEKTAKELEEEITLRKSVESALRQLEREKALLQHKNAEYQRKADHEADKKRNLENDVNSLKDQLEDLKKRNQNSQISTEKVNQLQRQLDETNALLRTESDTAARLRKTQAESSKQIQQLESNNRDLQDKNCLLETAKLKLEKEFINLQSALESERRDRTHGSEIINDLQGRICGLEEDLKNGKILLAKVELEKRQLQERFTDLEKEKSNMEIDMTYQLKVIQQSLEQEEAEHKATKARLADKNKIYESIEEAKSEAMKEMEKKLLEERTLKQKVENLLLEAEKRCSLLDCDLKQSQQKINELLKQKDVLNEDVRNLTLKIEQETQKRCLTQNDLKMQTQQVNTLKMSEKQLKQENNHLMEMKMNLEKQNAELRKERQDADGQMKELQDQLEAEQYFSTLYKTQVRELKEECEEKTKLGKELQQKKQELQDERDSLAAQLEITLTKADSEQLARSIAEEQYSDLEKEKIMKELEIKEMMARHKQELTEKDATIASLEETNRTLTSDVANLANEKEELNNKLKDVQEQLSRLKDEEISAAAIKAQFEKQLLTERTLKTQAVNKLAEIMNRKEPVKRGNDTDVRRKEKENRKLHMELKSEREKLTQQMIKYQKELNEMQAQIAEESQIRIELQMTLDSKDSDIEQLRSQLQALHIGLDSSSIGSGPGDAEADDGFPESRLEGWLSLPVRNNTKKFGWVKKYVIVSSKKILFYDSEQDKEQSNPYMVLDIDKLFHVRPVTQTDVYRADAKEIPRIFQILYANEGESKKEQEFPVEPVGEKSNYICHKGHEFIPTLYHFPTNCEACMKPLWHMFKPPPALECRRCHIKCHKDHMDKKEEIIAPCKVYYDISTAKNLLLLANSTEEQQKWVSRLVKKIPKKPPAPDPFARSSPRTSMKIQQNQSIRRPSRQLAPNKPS
Sequence of Rho-associated protein kinase 2 (Rattus norvegicus, UniProt Q62868) (Q62868 whole entry): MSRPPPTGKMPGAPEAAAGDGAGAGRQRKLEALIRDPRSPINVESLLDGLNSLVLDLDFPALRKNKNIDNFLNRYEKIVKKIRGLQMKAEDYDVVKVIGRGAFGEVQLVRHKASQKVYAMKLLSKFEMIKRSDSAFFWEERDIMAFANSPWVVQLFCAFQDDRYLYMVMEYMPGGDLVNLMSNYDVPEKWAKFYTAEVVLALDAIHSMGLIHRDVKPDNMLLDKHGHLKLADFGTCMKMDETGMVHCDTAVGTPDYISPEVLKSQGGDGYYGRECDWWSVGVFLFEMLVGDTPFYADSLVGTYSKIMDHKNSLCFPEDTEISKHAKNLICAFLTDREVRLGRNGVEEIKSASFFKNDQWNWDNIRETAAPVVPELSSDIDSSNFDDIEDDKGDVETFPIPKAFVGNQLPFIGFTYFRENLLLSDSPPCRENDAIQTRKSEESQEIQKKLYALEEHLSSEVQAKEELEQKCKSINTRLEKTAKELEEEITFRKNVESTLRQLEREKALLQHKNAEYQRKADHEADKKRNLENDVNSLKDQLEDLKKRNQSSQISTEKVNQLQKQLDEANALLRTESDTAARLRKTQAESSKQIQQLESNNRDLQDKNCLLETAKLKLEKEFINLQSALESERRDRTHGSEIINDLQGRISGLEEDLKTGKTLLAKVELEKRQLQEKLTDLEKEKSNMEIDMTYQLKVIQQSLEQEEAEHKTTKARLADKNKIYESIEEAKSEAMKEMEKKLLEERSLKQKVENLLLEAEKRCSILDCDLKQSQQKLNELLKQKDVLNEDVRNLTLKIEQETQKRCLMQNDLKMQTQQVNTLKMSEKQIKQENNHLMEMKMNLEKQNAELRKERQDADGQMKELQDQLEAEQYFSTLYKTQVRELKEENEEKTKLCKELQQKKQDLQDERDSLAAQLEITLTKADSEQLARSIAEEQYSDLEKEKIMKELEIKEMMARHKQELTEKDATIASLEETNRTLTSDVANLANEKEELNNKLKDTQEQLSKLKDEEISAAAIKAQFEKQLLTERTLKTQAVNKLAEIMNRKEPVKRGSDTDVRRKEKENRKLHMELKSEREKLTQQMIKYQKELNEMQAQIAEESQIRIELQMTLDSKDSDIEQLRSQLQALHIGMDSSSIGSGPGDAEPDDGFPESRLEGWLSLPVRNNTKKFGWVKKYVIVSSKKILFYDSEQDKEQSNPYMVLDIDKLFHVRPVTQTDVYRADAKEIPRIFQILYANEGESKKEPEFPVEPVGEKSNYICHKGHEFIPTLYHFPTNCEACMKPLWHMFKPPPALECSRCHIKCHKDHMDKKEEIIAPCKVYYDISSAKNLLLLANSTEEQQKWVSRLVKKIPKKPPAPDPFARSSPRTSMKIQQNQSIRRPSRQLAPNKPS
Sequence of Serine/threonine-protein kinase MRCK alpha (Q5VT25 whole entry): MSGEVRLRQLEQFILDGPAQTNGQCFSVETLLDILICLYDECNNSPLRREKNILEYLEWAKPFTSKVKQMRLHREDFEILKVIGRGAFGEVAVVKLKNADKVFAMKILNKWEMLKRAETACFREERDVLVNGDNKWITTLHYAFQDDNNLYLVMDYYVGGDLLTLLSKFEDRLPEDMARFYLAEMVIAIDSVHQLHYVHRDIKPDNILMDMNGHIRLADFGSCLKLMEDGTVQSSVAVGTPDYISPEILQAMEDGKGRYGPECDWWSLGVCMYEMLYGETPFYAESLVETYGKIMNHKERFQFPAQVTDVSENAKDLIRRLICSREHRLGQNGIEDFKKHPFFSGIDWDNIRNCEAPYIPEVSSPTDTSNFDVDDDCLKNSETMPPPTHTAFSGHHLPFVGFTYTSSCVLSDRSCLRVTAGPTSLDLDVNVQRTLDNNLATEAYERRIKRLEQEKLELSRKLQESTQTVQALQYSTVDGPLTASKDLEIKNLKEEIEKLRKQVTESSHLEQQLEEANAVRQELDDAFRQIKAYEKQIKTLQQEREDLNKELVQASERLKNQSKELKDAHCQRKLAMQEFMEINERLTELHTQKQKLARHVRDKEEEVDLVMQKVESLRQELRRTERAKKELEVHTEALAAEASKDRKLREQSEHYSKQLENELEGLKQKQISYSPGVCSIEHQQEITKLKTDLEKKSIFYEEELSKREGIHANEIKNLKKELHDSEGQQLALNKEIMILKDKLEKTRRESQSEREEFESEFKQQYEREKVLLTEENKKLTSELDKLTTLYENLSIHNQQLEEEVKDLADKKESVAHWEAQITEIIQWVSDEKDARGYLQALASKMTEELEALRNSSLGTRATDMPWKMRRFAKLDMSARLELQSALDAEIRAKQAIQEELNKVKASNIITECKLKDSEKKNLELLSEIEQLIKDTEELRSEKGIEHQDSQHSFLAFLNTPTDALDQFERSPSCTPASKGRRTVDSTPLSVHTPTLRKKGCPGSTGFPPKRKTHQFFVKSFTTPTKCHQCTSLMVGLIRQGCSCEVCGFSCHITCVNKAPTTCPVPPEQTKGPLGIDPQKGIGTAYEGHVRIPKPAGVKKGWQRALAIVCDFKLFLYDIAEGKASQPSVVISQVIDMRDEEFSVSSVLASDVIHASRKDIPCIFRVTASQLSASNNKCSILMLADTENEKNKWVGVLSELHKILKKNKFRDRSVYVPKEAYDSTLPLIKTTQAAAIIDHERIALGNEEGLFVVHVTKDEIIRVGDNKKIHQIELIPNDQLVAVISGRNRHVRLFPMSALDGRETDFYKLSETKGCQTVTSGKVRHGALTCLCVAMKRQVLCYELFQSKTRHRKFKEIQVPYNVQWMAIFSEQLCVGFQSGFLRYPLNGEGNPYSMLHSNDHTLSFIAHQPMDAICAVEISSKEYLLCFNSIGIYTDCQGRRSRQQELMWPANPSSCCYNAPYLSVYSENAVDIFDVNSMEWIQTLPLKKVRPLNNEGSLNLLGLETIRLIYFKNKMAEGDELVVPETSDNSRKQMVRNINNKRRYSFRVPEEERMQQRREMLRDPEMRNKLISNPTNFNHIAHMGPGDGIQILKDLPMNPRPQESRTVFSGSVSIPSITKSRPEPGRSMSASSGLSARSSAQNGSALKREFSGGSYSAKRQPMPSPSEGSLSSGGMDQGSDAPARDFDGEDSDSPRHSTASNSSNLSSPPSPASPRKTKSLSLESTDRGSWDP

For the compound `COc1ccc2c(c1)C[C@@H](C(=O)Nc1ccc(-c3cn[nH]c3)cc1O[C@@H]1CCN(C)C1)CO2`, the IC50 in test [1] is 32 nM; in test [2], more than 20000 nM; in test [3], more than 20 µM; in test [4], 14 nM.

As for `COc1ccc2c(c1)C[C@H](C(=O)Nc1ccc(-c3cn[nH]c3)cc1OCCN1CCCC1)CO2`, the IC50 in test [1] is less than 4 nM; in test [2], 1270 nM; in test [3], 9.6 µM; in test [4] it was less than 1 nM. Further, the Ratio IC50 in the test filed under Homo sapiens [5] was more than 9500; in the test filed under Homo sapiens [6], more than 1200.

For `COc1ccc2c(c1)C[C@H](C(=O)Nc1ccc(-c3cn[nH]c3)cc1OCCN(C)C)CO2`, the IC50 was less than 4 nM in test [1] and 1.74 µM in test [3].

For `COc1ccc2c(c1)C[C@H](C(=O)Nc1ccc(-c3cn[nH]c3)cc1OCCCO)CO2`, the IC50 in test [1] was less than 4 nM; in test [2] it was 74 nM; in test [3] it was 0.652 µM; in test [4] it was less than 1 nM.

`COc1ccc2c(c1)C[C@@H](C(=O)Nc1ccc(-c3cn[nH]c3)cc1OCCN(C)C)CO2`: the IC50 was 43 nM in test [1] and more than 20 µM in test [3].

In the case of `COc1ccc2c(c1)C[C@@H](C(=O)Nc1ccc(-c3cn[nH]c3)cc1OCCCO)CO2`, the figures for the IC50 in test [1], in test [3] and in test [4] were 519 nM, more than 20 µM and 35 nM, respectively.

Take `COc1ccc2c(c1)C[C@@H](C(=O)Nc1ccc(-c3cn[nH]c3)cc1O[C@H]1CCN(C)C1)CO2`: the IC50 in test [1] is 900 nM; in test [3], more than 20 µM; in test [4] it was 34 nM.

In the case of `COc1ccc2c(c1)C[C@H](C(=O)Nc1ccc(-c3cn[nH]c3)cc1O[C@H]1CCN(C)C1)CO2`, the IC50 in test [1] is less than 4 nM; in test [2], 294 nM; in test [3], 7.38 µM; in test [4], less than 1 nM.

In the case of `COc1ccc2c(c1)C[C@@H](C(=O)Nc1ccc(-c3cn[nH]c3)cc1OCCN1CCCC1)CO2`, the IC50 was 411 nM in test [1], more than 20000 nM in test [2], more than 20 µM in test [3] and 30 nM in test [4].

For `COc1ccc2c(c1)C[C@H](C(=O)Nc1ccc(-c3cn[nH]c3)cc1O[C@@H]1CCN(C)C1)CO2`, the IC50 in test [1] is less than 4 nM; in test [2], 261 nM; in test [3], 3.46 µM; in test [4] it was less than 1 nM.

For orientation: IC50 means the concentration at which inhibition is half-maximal.
